Source: PubChem BioAssay (NCI)
Several values for one entry are separate records, joined by “and”; a condition that tells them apart may be missing. Identical values can stand only once.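 Grown in 96-well plates, cells were treated for 48 hours with each compound at five concentrations. Insufficient inhibition: endpoint recorded as highest concentration tested. GI50 = concentration required for 50% inhibition of growth. The concentration for full growth arrest is given as TGI.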

Legend:
Test in all cases: NCI-60 cell line screen, 48 h
NCI-H23 lung = tested on: NCI-H23 lung
SF-268 CNS = tested on: SF-268 CNS
ACHN renal = tested on: ACHN renal
DMS 273 small cell lung = tested on: DMS 273 small cell lung
LXFL 529 NSCLC = tested on: LXFL 529 NSCLC
M14 melanoma = tested on: M14 melanoma
MOLT-4 leukemia = tested on: MOLT-4 leukemia
BT-549 breast = tested on: BT-549 breast
NCI/ADR-RES ovarian = tested on: NCI/ADR-RES ovarian
SK-MEL-2 melanoma = tested on: SK-MEL-2 melanoma

SMILES	TGI (NCI-H23 lung)	GI50 (SF-268 CNS)	TGI (SF-268 CNS)	TGI (ACHN renal)	TGI (DMS 273 small cell lung)	TGI (LXFL 529 NSCLC)	TGI (M14 melanoma)	TGI (MOLT-4 leukemia)	GI50 (NCI-H23 lung)	GI50 (BT-549 breast)	TGI (BT-549 breast)	GI50 (M14 melanoma)	GI50 (ACHN renal)	GI50 (NCI/ADR-RES ovarian)	TGI (NCI/ADR-RES ovarian)	GI50 (MOLT-4 leukemia)	GI50 (SK-MEL-2 melanoma)	TGI (SK-MEL-2 melanoma)
COc1ccc2cc1Oc1ccc(cc1)C[C@H]1c3cc(c(OC)cc3CCN1C)Oc1c(OC)c(OC)cc3c1[C@H](C2)N(C)CC3	20.5 µM and 27.4 µM and > 100 µM	12.6 µM	16.5 µM and 25.1 µM and > 100 µM	15.4 µM and 27.2 µM and 40 µM	13.2 µM	–	–	–	–	–	–	–	–	–	–	–	–	–
CCCCCCCCCCCCCCCC(=O)NCC(COP(=O)([O-])OCC[N+](C)(C)C)OCC (stereo not drawn)	39.3 µM	–	27 µM	29.1 µM	5 µM	27.8 µM	24.7 µM	10.1 µM	–	–	–	–	–	–	–	–	–	–
COC(=O)C(c1[nH]nc2ccccc12)C(C(=O)OC)c1[nH]nc2ccccc12 (stereo not drawn)	> 100 µM	–	> 100 µM	> 100 µM	–	> 100 µM	> 100 µM	82.5 µM	–	–	–	–	–	–	–	–	–	–
CCOc1ccc(NC(=O)CC2Sc3ccccc3NC2=O)cc1 (stereo not drawn)	> 100 µM	–	> 100 µM	> 100 µM	> 100 µM	> 100 µM	> 100 µM	> 100 µM	–	–	–	–	–	–	–	–	–	–
C=CC(=O)N[C@H]1C=C(C)c2c(-c3cnc4ccccc4c3)c3c(N)ncnc3n2C1	54.5 µM	5.81 µM	72.9 µM	16.8 µM	–	–	32.4 µM	> 100 µM	19.6 µM	12.5 µM	41.9 µM	10 µM	0.249 µM	21.3 µM	> 87.9 µM	24.5 µM	13.4 µM	35.2 µM
O=C1/C(=C/c2ccc(F)cc2)CCOc2ccc([N+](=O)[O-])cc21	4.51 µM	22.3 µM	53.2 µM	65.4 µM	–	–	5.61 µM	6.02 µM	1.95 µM	3 µM	7.82 µM	2.22 µM	28 µM	2.12 µM	4.99 µM	2.49 µM	3.17 µM	11.6 µM
CCN1CCN(c2nc(NCCCNc3ccnc4cc(Cl)ccc34)c3ccccc3n2)CC1	16.9 µM	2.59 µM	10.7 µM	4.54 µM	–	–	3.63 µM	9.04 µM	4.29 µM	3.45 µM	13.6 µM	1.86 µM	2.04 µM	15.2 µM	32.3 µM	2.07 µM	2.14 µM	4.88 µM
Clc1ccccc1C(c1ccccc1)(c1ccccc1)n1ccnc1	13.1 µM and 26.3 µM	3.92 µM	18.8 µM and 35.7 µM	13.1 µM and 25.6 µM	–	–	5.46 µM and 29.8 µM	6.87 µM and 57.7 µM	2.88 µM	2.54 µM	6.87 µM and 20.6 µM	2.23 µM	2.87 µM	2.88 µM	13.3 µM and 28.2 µM	1.96 µM	2.66 µM	7.22 µM and 29.3 µM
COc1ccc(C(=S)N2CCN(c3cccc(Cl)c3)CC2)cc1	> 100 µM	> 100 µM	> 100 µM	> 100 µM	–	–	> 100 µM	> 100 µM	> 100 µM	> 100 µM	> 100 µM	> 100 µM	> 100 µM	97 µM	> 100 µM	> 100 µM	> 100 µM	> 100 µM
CN1CCN(CC#Cc2cccc(C(=O)c3cnn(-c4ccc(F)cc4)c3N)c2)CC1	> 25 µM	> 25 µM	> 25 µM	> 25 µM	–	–	> 25 µM	> 25 µM	> 25 µM	> 25 µM	> 25 µM	> 25 µM	> 25 µM	> 25 µM	> 25 µM	> 25 µM	> 25 µM	> 25 µM
CCOC(=O)C1(CC)CCCCC(=O)N1 (stereo not drawn)	> 100 µM	–	> 100 µM	> 100 µM	> 100 µM	> 100 µM	> 100 µM	–	–	–	–	–	–	–	–	–	–	–
Cc1ccn2c3c(c(C(=O)O)c2c1)C(=O)c1ccccc1C3=O	5.88 µM	> 100 µM	> 100 µM	> 100 µM	–	–	2.64 µM	> 100 µM	1.74 µM	3.9 µM	53.6 µM	1.11 µM	> 96.4 µM	49.8 µM	> 100 µM	> 100 µM	> 100 µM	> 100 µM
Nc1n[nH]c2ccc([C@@H]3Nc4ccc5[nH]ncc5c4[C@H]4[C@H]5CCC(C5)[C@H]43)cc12	> 46 µM	1.56 µM	43.7 µM	> 72 µM	–	–	> 40.7 µM	> 51.3 µM	0.654 µM	0.489 µM	9.29 µM	0.293 µM	0.895 µM	0.525 µM	> 44.1 µM	0.407 µM	1.24 µM	40.8 µM
O=C(CCN1CCN(c2cnc3ccccc3n2)CC1)c1csc2ccccc12	> 100 µM	> 100 µM	> 100 µM	42.1 µM	–	–	> 100 µM	> 100 µM	> 100 µM	14.9 µM	30 µM	75.2 µM	19.5 µM	> 100 µM	> 100 µM	35.7 µM	> 100 µM	> 100 µM
CCn1c(-c2nonc2N)nc2c(C#CCN)ncc(OCCCN)c21	> 25 µM	> 25 µM	> 25 µM	> 25 µM	–	–	> 25 µM	> 25 µM	> 25 µM	> 25 µM	> 25 µM	> 25 µM	> 25 µM	> 25 µM	> 25 µM	> 25 µM	> 25 µM	> 25 µM
COc1ccc(-c2nn(-c3cccc(Cl)c3)cc2C2CC(c3ccccc3)=NN2C(C)=O)cc1 (stereo not drawn)	> 100 µM	3.13 µM	14.2 µM	20 µM	–	–	> 100 µM	> 100 µM	10.1 µM	3.23 µM	19.7 µM	7.68 µM	3.48 µM	6.96 µM	> 100 µM	> 100 µM	4.97 µM	22.6 µM
COc1ccc(NC(=O)Nc2n[nH]c3ccccc23)cc1	> 100 µM	> 100 µM	> 100 µM	> 100 µM	–	–	> 100 µM	> 100 µM	> 100 µM	> 100 µM	> 100 µM	> 100 µM	> 100 µM	> 100 µM	> 100 µM	> 100 µM	> 100 µM	> 100 µM
